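Following 48 hours of exposure in 96-well plates, responses at five concentrations were used to interpolate endpoints linearly. GI50 = concentration required for 50% inhibition of growth.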 Active and inactive are the calls of the source. Cut-off read from the data, not from the text of the source: active = GI50 up to about 1.1 µM and inactive = higher.
Legend:
Assay in all cases: NCI tumour cell line growth inhibition, 48 h
MDA-N = system: MDA-N
MCF7 = system: MCF7
UACC-257 = system: UACC-257
SNB-19 = system: SNB-19
SF-295 = system: SF-295
SF-539 = system: SF-539
A549 = system: A549
SK-MEL-5 = system: SK-MEL-5
BT-549 = system: BT-549
SF-268 = system: SF-268
A498 = system: A498
KM12 = system: KM12
SNB-75 = system: SNB-75
HT-29 = system: HT-29
786-0 = system: 786-0
MOLT-4 = system: MOLT-4
SK-MEL-2 = system: SK-MEL-2
TK-10 = system: TK-10
CCRF-CEM = system: CCRF-CEM

SMILES	GI50 (MDA-N)	GI50 (MCF7)	GI50 (UACC-257)	GI50 (SNB-19)	GI50 (SF-295)	GI50 (SF-539)	GI50 (A549)	GI50 (SK-MEL-5)	GI50 (BT-549)	GI50 (SF-268)	GI50 (A498)	GI50 (KM12)	GI50 (SNB-75)	GI50 (HT-29)	GI50 (786-0)	GI50 (MOLT-4)	GI50 (SK-MEL-2)	GI50 (TK-10)	GI50 (CCRF-CEM)
CC(=N/NC(=S)N(C)C)/C(=N\NC(=S)N(C)C)c1ccccc1	2.11 µM (inactive)	2.84 µM (inactive)	1.98 µM (inactive)	2.56 µM (inactive)	2.08 µM (inactive)	3.66 µM (inactive)	2.76 µM (inactive)	1.64 µM (inactive)	2.17 µM (inactive)	2.07 µM (inactive)	1.59 µM (inactive)	2.15 µM (inactive)	2.12 µM (inactive)	3.38 µM (inactive)	2 µM (inactive)	7.16 µM (inactive)	1.99 µM (inactive)	1.59 µM (inactive)	
CCOC(=O)C(=[N+]=[N-])C(=O)CN1C(=O)c2ccccc2C1=O	> 100 µM (inactive)	> 100 µM (inactive)	> 100 µM (inactive)	> 100 µM (inactive)	> 100 µM (inactive)	> 100 µM (inactive)	> 100 µM (inactive)	> 100 µM (inactive)	> 100 µM (inactive)	> 100 µM (inactive)	> 100 µM (inactive)		> 100 µM (inactive)	> 100 µM (inactive)	> 100 µM (inactive)	> 100 µM (inactive)	> 100 µM (inactive)	> 100 µM (inactive)	
O=C1c2ccccc2-c2c1c(-c1ccc(F)cc1)nc1ccc3ccccc3c21	> 100 µM (inactive)	> 100 µM (inactive)	> 100 µM (inactive)	> 100 µM (inactive)	> 100 µM (inactive)	> 100 µM (inactive)	> 100 µM (inactive)		> 100 µM (inactive)	> 100 µM (inactive)	> 100 µM (inactive)	> 100 µM (inactive)	> 100 µM (inactive)	> 100 µM (inactive)	> 100 µM (inactive)	> 100 µM (inactive)	> 100 µM (inactive)		> 100 µM (inactive)
Oc1cccnc1CN1CCCCC1	> 100 µM (inactive)	> 100 µM (inactive)	> 100 µM (inactive)	> 100 µM (inactive)	> 100 µM (inactive)	> 100 µM (inactive)	> 100 µM (inactive)	> 100 µM (inactive)	> 100 µM (inactive)	> 100 µM (inactive)	> 100 µM (inactive)	> 100 µM (inactive)	> 100 µM (inactive)	> 100 µM (inactive)	> 100 µM (inactive)	> 100 µM (inactive)	> 100 µM (inactive)	> 100 µM (inactive)	
CCC(c1ccc2cc(O)ccc2c1)C(C)(C)C(=O)O (stereo not given)	> 100 µM (inactive)	> 100 µM (inactive)	> 100 µM (inactive)	> 100 µM (inactive)	> 100 µM (inactive)	> 100 µM (inactive)	> 100 µM (inactive)	> 100 µM (inactive)	> 100 µM (inactive)	> 100 µM (inactive)	> 100 µM (inactive)	> 100 µM (inactive)	> 100 µM (inactive)	> 100 µM (inactive)	> 100 µM (inactive)	> 100 µM (inactive)	> 100 µM (inactive)	> 100 µM (inactive)	
NC(=O)c1ccc(/N=N/O)nc1	> 100 µM (inactive)	> 100 µM (inactive)	> 100 µM (inactive)	> 100 µM (inactive)	> 100 µM (inactive)	> 100 µM (inactive)	> 100 µM (inactive)	> 100 µM (inactive)	> 100 µM (inactive)	> 100 µM (inactive)	> 100 µM (inactive)	> 100 µM (inactive)	> 100 µM (inactive)	> 100 µM (inactive)	> 100 µM (inactive)	> 100 µM (inactive)		> 100 µM (inactive)	> 100 µM (inactive)
CNC(=S)N/N=C(\C(=N/NC(=S)NC)c1ccccn1)c1ccccn1	44.3 µM (inactive)	< 0.0355 µM (active)	1.82 µM (inactive)	10.3 µM (inactive)	3.15 µM (inactive)	45.8 µM (inactive)	5.74 µM (inactive)	1.53 µM (inactive)	14.4 µM (inactive)	1.19 µM (inactive)	4.58 µM (inactive)	14.2 µM (inactive)	20.8 µM (inactive)	< 0.01 µM (active)	5.71 µM (inactive)		14.3 µM (inactive)	4.04 µM (inactive)	
COC(=O)c1c(O)c2c(c3c1OC(C)(C)CC3)OC(C)(C)CC2	22.1 µM (inactive)	18.2 µM (inactive)	20.4 µM (inactive)	18.2 µM (inactive)	17 µM (inactive)	18 µM (inactive)	20.5 µM (inactive)	15 µM (inactive)	20 µM (inactive)	22.9 µM (inactive)	18.7 µM (inactive)	16.9 µM (inactive)	> 10 µM (inactive)	16.7 µM (inactive)	16.8 µM (inactive)	22.7 µM (inactive)		> 10 µM (inactive)	23 µM (inactive)
O=C1Nc2ccc(Br)cc2/C1=N/NC(=S)Nc1ccc([N+](=O)[O-])cc1	7.98 µM (inactive)	7.13 µM (inactive)	14.4 µM (inactive)		6.08 µM (inactive)	20.2 µM (inactive)		7.74 µM (inactive)	2.28 µM (inactive)	9.04 µM (inactive)	5.56 µM (inactive)	5.94 µM (inactive)	16 µM (inactive)	7.71 µM (inactive)	8.91 µM (inactive)	5.31 µM (inactive)	13.7 µM (inactive)	14.5 µM (inactive)	
O=S(=O)(c1ccccc1)C(c1ccc2ccccc2n1)S(=O)(=O)c1ccccc1	> 100 µM (inactive)	> 100 µM (inactive)	> 100 µM (inactive)	> 100 µM (inactive)	> 100 µM (inactive)	> 100 µM (inactive)	> 100 µM (inactive)	> 100 µM (inactive)	> 100 µM (inactive)	> 100 µM (inactive)	> 100 µM (inactive)	> 100 µM (inactive)	> 100 µM (inactive)	> 100 µM (inactive)	> 100 µM (inactive)	> 100 µM (inactive)		> 100 µM (inactive)	
Cc1ccc2nc(-c3ccc(-n4c(C)nc(=O)c(-c5ccc(F)cc5)c4C)cc3)sc2c1	14.4 µM (inactive)	13.3 µM (inactive)	16.1 µM (inactive)	14.8 µM (inactive)	17.5 µM (inactive)		14.7 µM (inactive)	10.8 µM (inactive)	14.5 µM (inactive)	20.3 µM (inactive)	18.2 µM (inactive)	17.3 µM (inactive)	13.7 µM (inactive)	13.2 µM (inactive)	13.6 µM (inactive)	7 µM (inactive)	19.1 µM (inactive)	16.1 µM (inactive)	13 µM (inactive)
CC(=O)Nc1nc(O)c2nc(C=O)cnc2n1	> 100 µM (inactive)	> 100 µM (inactive)	> 100 µM (inactive)	> 100 µM (inactive)	> 100 µM (inactive)	> 100 µM (inactive)	> 100 µM (inactive)	> 100 µM (inactive)	> 100 µM (inactive)	> 100 µM (inactive)	> 100 µM (inactive)	> 100 µM (inactive)	> 100 µM (inactive)	> 100 µM (inactive)	> 100 µM (inactive)	> 100 µM (inactive)	> 100 µM (inactive)	> 100 µM (inactive)	

Reference: ChEMBL document CHEMBL1201862, “PubChem BioAssay data set” (2004)
